For the test, the target named is ROCK2 (Homo sapiens (Human), UniProt O75116). In words: ROCK assay (Caliper LABCHIP peptide phosphorylation). It is filed as biochemical. The note with it: 5 μM ATP, 1.5 μM peptide substrate. As to the method: The effectiveness of compounds of the present invention as ROCK inhibitors can be determined in a 30 μL assay containing 20 mM HEPES, pH 7.5, 20 mM MgCl2, 0.015% Brij-35, 4 mM DTT, 5 μM ATP and 1.5 μM peptide substrate (FITC-AHA-AKRRRLSSLRA-OH) (SEQ ID No. 1). Compounds were dissolved in DMSO so that the final concentration of DMSO was <2%, and the reaction was initiated with Rho kinase variants. After incubation, the reaction was terminated by the addition of EDTA and the phosphorylated and non-phosphorylated peptides separated using a LABCHIP® 3000 Reader (Caliper Life Sciences). […] Compounds were tested in dose-response format, and the inhibition of kinase activity was calculated at each concentration of compound. The inhibition data were fit using a curve-fitting program to determine the IC50; i.e., the concentration of compound required to inhibit 50% of kinase activity. Representative Examples were tested in the ROCK assay described above and found having ROCK inhibitory activity. A range of ROCK inhibitory activity (IC50 values) of ≤50 μM (50000 nM) was observed. Table A below lists the ROCK IC50 values measured for the following examples.
Sequence of ROCK2 (O75116 whole entry, species assumed): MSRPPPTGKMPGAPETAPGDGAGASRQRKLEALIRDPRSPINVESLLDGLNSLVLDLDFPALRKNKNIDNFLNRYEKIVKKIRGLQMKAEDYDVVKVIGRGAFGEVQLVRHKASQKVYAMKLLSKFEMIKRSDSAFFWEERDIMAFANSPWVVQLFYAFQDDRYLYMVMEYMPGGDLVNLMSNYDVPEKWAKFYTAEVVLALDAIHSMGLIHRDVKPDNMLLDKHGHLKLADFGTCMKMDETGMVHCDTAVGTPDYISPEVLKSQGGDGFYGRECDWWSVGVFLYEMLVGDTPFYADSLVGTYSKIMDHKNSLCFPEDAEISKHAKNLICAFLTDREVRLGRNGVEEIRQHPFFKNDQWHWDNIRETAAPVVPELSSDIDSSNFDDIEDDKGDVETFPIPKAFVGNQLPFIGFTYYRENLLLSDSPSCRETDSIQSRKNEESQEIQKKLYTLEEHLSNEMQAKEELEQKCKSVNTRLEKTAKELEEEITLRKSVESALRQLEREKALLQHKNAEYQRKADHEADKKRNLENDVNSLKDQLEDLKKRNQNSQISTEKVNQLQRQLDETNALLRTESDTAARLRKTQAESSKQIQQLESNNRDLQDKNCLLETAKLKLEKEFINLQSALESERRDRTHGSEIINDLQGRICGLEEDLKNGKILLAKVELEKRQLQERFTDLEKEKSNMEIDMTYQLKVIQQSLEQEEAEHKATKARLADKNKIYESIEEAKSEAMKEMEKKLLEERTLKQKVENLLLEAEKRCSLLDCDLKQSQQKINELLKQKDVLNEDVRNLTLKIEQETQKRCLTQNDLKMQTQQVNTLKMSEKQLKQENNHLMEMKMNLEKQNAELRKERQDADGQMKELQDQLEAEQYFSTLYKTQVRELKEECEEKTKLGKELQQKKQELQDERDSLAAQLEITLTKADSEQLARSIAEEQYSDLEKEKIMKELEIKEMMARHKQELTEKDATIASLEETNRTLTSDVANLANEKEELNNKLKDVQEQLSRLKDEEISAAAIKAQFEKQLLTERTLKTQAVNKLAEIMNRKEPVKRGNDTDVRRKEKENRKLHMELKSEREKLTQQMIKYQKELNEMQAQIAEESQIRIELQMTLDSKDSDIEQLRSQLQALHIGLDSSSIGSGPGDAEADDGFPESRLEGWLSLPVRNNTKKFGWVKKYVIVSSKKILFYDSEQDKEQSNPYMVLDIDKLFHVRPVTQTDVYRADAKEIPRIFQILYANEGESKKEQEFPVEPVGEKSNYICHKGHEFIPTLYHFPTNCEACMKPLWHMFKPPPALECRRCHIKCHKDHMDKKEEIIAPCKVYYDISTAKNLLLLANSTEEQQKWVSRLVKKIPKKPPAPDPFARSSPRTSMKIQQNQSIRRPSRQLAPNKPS

As to `NC(=O)c1cccnc1O[C@H]1C[C@]2(C1)C[C@H](N1C(=O)NC(CC(C(F)(F)F)C(F)(F)F)C1=O)C2` (single isomer, unassigned) [Example 47], the half-maximal inhibitory concentration (IC50) turned out to be 50 nM. Take `NC(=O)c1cccnc1O[C@H]1C[C@]2(C1)C[C@H](N1C(=O)NC3(CCC3)C1=O)C2` (some centres unmarked) [Example 16, 2-{[(αR)-6-{6,8-dioxo-5,7-diaza-spiro[3.4]octan-7-yl}spiro[3.3]-heptan-2-yl]oxy}-pyridine-3-carbox-amide]: the IC50 amounted to 902 nM. Take `NC(=O)c1cccnc1O[C@H]1C[C@]2(C1)C[C@H](N1C(=O)CN(CCc3ccccc3)C1=O)C2` (some centres unmarked) [Example 11]: the IC50 was found to be 225 nM. In turn, `NC(=O)c1cccnc1O[C@H]1C[C@]2(C1)C[C@H](N1C(=O)NC(CC(C(F)(F)F)C(F)(F)F)C1=O)C2` (single isomer, unassigned) [Example 56, 2-{[(αR)-6-{2,5-dioxo-4-[3,3,3-trifluoro-2-(trifluoromethyl)-propyl]imidazol-idin-1-yl}spiro-[3.3]heptan-2-yl]-oxy}pyridine-3-carboxamide] came in with an IC50 of 256 nM. This IC50 and that of the molecule before are within 1.5-fold of each other. With `[H][C@]1(Oc2ncccc2C(N)=O)C[C@@]2(C[C@H](N3C(=O)N[C@@H](C[C@H]4CC[C@H](NC(=O)c5ccccc5)CC4)C3=O)C2)C1` (some centres unmarked) [Example 100] the figure was 52 nM.

`NC(=O)c1cccnc1O[C@H]1C[C@]2(C1)C[C@H](N1C(=O)NC(CCOC(F)(F)F)C1=O)C2` (single isomer, unassigned) [Example 57, 2-{[(αR)-6-{2,5-dioxo-4-[2-(tri-fluoromethoxy)-ethyl]imidazolidin-1-yl}spiro[3.3]-heptan-2-yl]oxy}-pyridine-3-carbox-amide] registered an IC50 of 259 nM.

With `NC(=O)c1cccnc1O[C@H]1C[C@]2(C1)C[C@H](N1C(=O)NC(CC3CC(F)(F)C3)C1=O)C2` (some centres unmarked) [Example 46, 2-{[(αR)-6-{4-[(3,3-difluorocyclo-butyl)methyl]-2,5-dioxoimidazolidin-1-yl}spiro[3.3]-heptan-2-yl]oxy}-pyridine-3-carbox-amide], the IC50 was determined as 48 nM.

On to `CC(C)(C)C1NC(=O)N([C@H]2C[C@@]3(C[C@H](Oc4ncccc4C(N)=O)C3)C2)C1=O` (some centres unmarked) [Example 7, 2-{[(αR)-6-(4-tert-butyl-2,5-dioxo-imidazolidin-1-yl)spiro[3.3]-heptan-2-yl]oxy}-pyridine-3-carbox-amide], for which the IC50 is 129 nM. Regarding `NC(=O)c1cccnc1O[C@H]1C[C@]2(C1)C[C@H](N1C(=O)NC(C[C@@H]3C[C@H]4CC[C@@H](C3)N4C(=O)OCc3ccccc3)C1=O)C2` (some centres unmarked) [Example 99, benzyl 3-((1-((αR)-6-((3-carbamoylpyridin-2-yl)oxy)spiro[3.3]heptan-2-yl)-2,5-dioxoimidazolidin-4-yl)methyl)-8-azabicyclo[3.2.1] octane-8-carboxylate], the IC50 turned out to be 659 nM. In turn, `NC(=O)c1cccnc1O[C@H]1C[C@]2(C1)C[C@H](N1C(=O)CN(c3ccc(Cc4ccccc4)cc3)C1=O)C2` (some centres unmarked) [Example 84, 2-(((αR)-6-(3-(4-benzylphenyl)-2,5-dioxoimidazolidin-1-yl)spiro[3.3]heptan-2-yl)oxy)nicotinamide] returned an IC50 of 17 nM.

As for `C=CC[C@@H]1CC(=O)N([C@H]2C[C@@]3(C[C@H](Oc4ncccc4C(N)=O)C3)C2)C(=O)N1` (stereo partly drawn) [Example 78, 2-{[(αR)-6-[(4R)-2,6-dioxo-4-(prop-2-en-1-yl)-1,3-diazinan-1-yl]-spiro[3.3]heptan-2-yl]oxy}pyridine-3-carboxamide], inhibition was half-maximal at 963 nM (IC50). Against the preceding molecule, the IC50 is about 57-fold higher. On to `CC(C)(C)OC(=O)NCCC1NC(=O)N([C@H]2C[C@@]3(C[C@H](Oc4ncccc4C(N)=O)C3)C2)C1=O` (single isomer, unassigned) [Example 20, tert-butyl N-(2-{2,5-dioxo-1-[(αR)-6-[(3-carbamoylpyridin-2-yl)oxy]spiro-[3.3]heptan-2-yl]-imidazolidin-4-yl}ethyl)carbamate], for which half-maximal inhibition (IC50) required 1710 nM. As to `COC[C@@H]1NC(=O)N([C@H]2C[C@@]3(C[C@H](Oc4ncccc4C(N)=O)C3)C2)C1=O` (stereo partly drawn) [Example 36, 2-{[(αR)-6-[(4S)-4-(methoxymethyl)-2,5-dioxoimidazol-idin-1-yl]spiro-[3.3]heptan-2-yl]-oxy}pyridine-3-carboxamide], the IC50 stood at 2390 nM. This IC50 and that of the molecule before are within 1.5-fold of each other.

Molecule `CC(C)(C)OC(=O)NCCCC1NC(=O)N([C@H]2C[C@@]3(C[C@H](Oc4ncccc4C(N)=O)C3)C2)C1=O` (some centres unmarked) [Example 15, tert-butyl N-(3-{2,5-dioxo-1-[(αR)-6-[(3-carbamoylpyridin-2-yl)oxy]spiro-[3.3]heptan-2-yl]imidazolidin-4-yl}propyl)-carbamate] registered an IC50 of 744 nM. For the molecule `CC(CCC1NC(=O)N([C@H]2C[C@@]3(C[C@H](Oc4ncccc4C(N)=O)C3)C2)C1=O)C(F)(F)F` (some centres unmarked) [Example 71, 2-{[(αR)-6-[2,5-dioxo-4-(4,4,4-trifluoro-3-methyl-butyl)imidazolidin-1-yl]spiro[3.3]-heptan-2-yl]oxy}-pyridine-3-carbox-amide], half-maximal inhibition (IC50) was put at 36 nM.

The molecule `C[C@H](C[C@@H]1NC(=O)N([C@H]2C[C@@]3(C[C@H](Oc4ncccc4C(N)=O)C3)C2)C1=O)C(F)(F)F` (stereo partly drawn) [Example 92, 2-(((αR)-6-((S)-2,5-dioxo-4-((R)-3,3,3-trifluoro-2-methylpropyl)imidazolidin-1-yl)spiro[3.3]heptan-2-yl)oxy)nicotinamide] displayed a half-inhibitory concentration (IC50) of 6 nM. `NC(=O)c1cccnc1O[C@H]1C[C@]2(C1)C[C@H](N1C(=O)NC(CCc3ccccc3)C1=O)C2` (single isomer, unassigned) [Example 5, 2-{[(αR)-6-[2,5-dioxo-4-(2-phenylethyl)-imidazolidin-1-yl]spiro[3.3]-heptan-2-yl]oxy}-pyridine-3-carboxamide] displayed an IC50 of 25 nM.

`CC(C)CCC1NC(=O)N([C@H]2C[C@@]3(C[C@H](Oc4ncccc4C(N)=O)C3)C2)C1=O` (some centres unmarked) [Example 54, 2-{[(αR)-6-[4-(3-methylbutyl)-2,5-dioxoimidazolidin-1-yl]spiro[3.3]-heptan-2-yl]oxy}-pyridine-3-carbox-amide] displayed an IC50 of 186 nM. Against the preceding molecule, the IC50 is about 7.4-fold higher.

Take `[H][C@]1(Oc2ncccc2C(N)=O)C[C@]2(C[C@@H](N3C(=O)NC(CCC4CC4)C3=O)C2)C1` (some centres unmarked) [Example 37]: the IC50 was 44 nM.

In turn, `NC(=O)c1cccnc1O[C@H]1C[C@]2(C1)C[C@H](N1C(=O)CN(c3cccc(C(F)(F)F)c3)C1=O)C2` (some centres unmarked) [Example 82, 2-(((αR)-6-(2,5-dioxo-3-(3-(trifluoromethyl)phenyl)imidazolidin-1-yl)spiro[3.3]heptan-2-yl)oxy)nicotinamide] yielded an IC50 of 5 nM. On to `Cn1cnc(CC2NC(=O)N([C@H]3C[C@@]4(C[C@H](Oc5ncccc5C(N)=O)C4)C3)C2=O)c1` (some centres unmarked) [Example 19, 2-{[(αR)-6-[2,5-dioxo-4-(1-methyl-4-imidazylmethyl)-imidazolidin-1-yl]spiro[3.3]heptan-2-yl]oxy}pyridine-3-carboxamide], for which the IC50 amounted to 1630 nM. “2-((((R)-6-(4-((1-adamantyl)methyl)-2,5-dioxoimidazolidin-1-yl)spiro[3.3]heptan-2-yl)oxy)nicotinamide [Example 68]”: half-maximal inhibition (IC50) was put at 17 nM. Consider `NC(=O)c1cccnc1O[C@H]1C[C@]2(C1)C[C@H](N1C(=O)NC(CC3CC4CCC3C4)C1=O)C2` (some centres unmarked) [Example 69, 2-{[(αR)-6-[4-({bicyclo[2.2.1]-heptan-2-yl]}-methyl)-2,5-dioxo-imidazolidin-1-yl]-spiro[3.3]heptan-2-yljoxy}pyridine-3-carboxamide], for which 16 nM corresponded to half-maximal inhibition (IC50).

A word on the IC50: it is the concentration that inhibits the measured activity by half.
